The text below walks through data of PMC9865645, “The Impact of N^ε-Acryloyllysine Piperazides on the Conformational Dynamics of Transglutaminase 2” (International Journal of Molecular Sciences, 2023).

In series [1] the target is T1, in-house produced N-terminally Twin-Strep-tagged hTGase 2 (Homo sapiens, UniProt P21980).
T1 construct: thrombin cleavage site (N); made in house; host or cells: E. coli BL21(DE3)
T1 sequence (P21980 1-687): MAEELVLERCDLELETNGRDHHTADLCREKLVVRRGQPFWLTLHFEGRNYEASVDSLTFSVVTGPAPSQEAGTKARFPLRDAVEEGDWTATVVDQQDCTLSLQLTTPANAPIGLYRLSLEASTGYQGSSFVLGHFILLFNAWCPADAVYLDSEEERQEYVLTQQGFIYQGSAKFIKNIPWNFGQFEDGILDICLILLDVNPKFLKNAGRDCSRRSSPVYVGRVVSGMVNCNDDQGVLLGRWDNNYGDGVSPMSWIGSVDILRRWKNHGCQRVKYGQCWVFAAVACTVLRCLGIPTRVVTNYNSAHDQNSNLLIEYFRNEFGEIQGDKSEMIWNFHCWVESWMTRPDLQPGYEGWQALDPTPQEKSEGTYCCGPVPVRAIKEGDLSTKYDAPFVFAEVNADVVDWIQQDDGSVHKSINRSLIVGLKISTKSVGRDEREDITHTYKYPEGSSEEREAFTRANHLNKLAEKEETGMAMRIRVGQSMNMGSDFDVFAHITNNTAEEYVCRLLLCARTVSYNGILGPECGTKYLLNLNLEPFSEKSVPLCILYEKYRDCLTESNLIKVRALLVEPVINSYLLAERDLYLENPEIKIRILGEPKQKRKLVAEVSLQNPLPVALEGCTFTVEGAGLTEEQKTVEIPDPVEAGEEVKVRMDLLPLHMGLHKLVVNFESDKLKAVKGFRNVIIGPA
The series can be described thus: fluorescence anisotropy (FA)-based transamidase activity assay, in-house Twin-Strep-tagged hTGase 2. Type of series: biochemical. As to conditions: 5 min pre-incubation of enzyme and inhibitor; mean (SEM) of three experiments. The text has this: The gene of hTGase 2 (Uniprot ID: P21980) with an N-terminal thrombin cleavage site was cloned into the pPSG-IBA105 vector containing the sequence for an N-terminal Twin-Strep-tag (IBA Lifesciences GmbH, Göttingen, Germany) to obtain the final plasmid pPSG-IBA105/TCS-hTGase 2. The plasmid construct was verified by DNA sequencing (Eurofins Genomics Germany GmbH) and then transformed into E. coli BL21(DE3) by the heat–shock method. hTGase 2-expressing E. coli cells were lysed by lysozyme treatment, and hTGase 2 was purified by affinity chromatography on an ÄKTA purifier UPC 10 FPLC equipped with a Strep-Tactin XT cartridge (GE Healthcare Europe GmbH, Freiburg, Germany). Identity and purity of self-produced hTGase 2 were verified by SDS-PAGE and Western Blot analysis, respectively. Protein concentration was determined according to Bradford. More detailed descriptions of the generation and characterization of the final plasmid construct pPSG-IBA105/TCS-hTGase 2 and the expression, purification, and characterization of the self-produced hTGase 2 protein will be published elsewhere (manuscript in preparation).
(§1) For the analysis of inhibitor 1 on self-produced hTGase 2, 2 µg/mL of the enzyme was used to guarantee comparability with the value reported by Wodtke et al., whereas all other experiments were performed with 5 µg/mL of either commercial or self-produced hTGase 2 (corresponding to 64.1 and 61.6 nM, respectively, when assuming 100% active protein). Parallel and perpendicular fluorescence intensities were measured over 1190 s in 35 s intervals (1) or over 1776 s in 48 s intervals (2, 3) and used to calculate the FA. Data of FA for the first 875 s (1) or 384 s (2, 3) were analyzed by linear regression, with slopes corresponding to enzymatic rates. Rates in the presence of inhibitor were normalized by dividing them by the respective rate in the absence of inhibitor, and normalized rates were analyzed according to Equation (S29) in Supplementary Materials to calculate values of IC50. Data analysis was performed with Microsoft Excel (Microsoft Office Professional Plus 2016, Microsoft® Corporation, USA) and GraphPad Prism version 5.03 or version 6.07 for Windows (GraphPad Software, La Jolla, CA, USA).
(In general: Fluorescence polarisation rises when a labelled molecule tumbles more slowly, as on binding a larger partner.)

The target in series [2] is T2, commercial His6-hTGase 2 (Homo sapiens, UniProt P21980).
T2 construct: purchased Zedira (Darmstadt, Germany) T022, lot 0716a
T2 sequence (P21980 1-687): T1 sequence (P21980 1-687)
The arrangement: method as in PMID 29664627. To be noted: 5 min pre-incubation of enzyme and inhibitor; mean (SEM); previously reported; cited from earlier work.

For series [3], the target named is T3, His6-hTGase 2 (Homo sapiens, UniProt P21980).
T3 construct: purchased Zedira (Darmstadt, Germany) T022, lot 0716a
T3 sequence (P21980 1-687): T1 sequence (P21980 1-687)
The arrangement: method as in PMID 29664627. To be noted: mean (SEM); previously reported; cited from earlier work.

Series [4] has as its target T2, commercial His6-hTGase 2. The series can be described thus: fluorescence anisotropy (FA)-based transamidase activity assay, commercial His6-hTGase 2. Type of series: biochemical. To be noted: 5 min pre-incubation of enzyme and inhibitor; mean (SEM) of three experiments. The protocol: as §1
The target in series [5] is T3, His6-hTGase 2. The series can be described thus: fluorimetric activity assay (substrate Z-Glu(HMC)-Gly-OH) for kinact/KI. It is filed as biochemical. To be noted: mean (SEM) of two to four experiments.
In the next series the target is T4, hTGase 2 (Homo sapiens, UniProt P21980).
T4 construct: purchased Zedira (Darmstadt, Germany) T022, lot 0716a
T4 sequence (P21980 1-687): T1 sequence (P21980 1-687)
The series can be described thus: switchSENSE dynamic mode: upward motion (relative inverse slope, friction) of hTGase 2-dsDNA lever. As to conditions: 10 µM inhibitor with 1 mM Ca^2+, 0.1% DMSO, then pure TE40; non-directed labeling. Here is the method:
Prior to the measurement of the switching kinetics of the differently conjugated hTGase 2, a complementary ssDNA without the enzyme (500 nM) was hybridized to the single-stranded capture strands on the chip electrodes to obtain the reference kinetics of the dsDNA lever. In addition, to determine the impact of CaCl2 and DMSO on the movement of the bare dsDNA lever, and thus on reference kinetics, its switching behavior was investigated in TE40, TE40 + 1 mM CaCl2, TE40 + 1 mM CaCl2 + 1% DMSO or TE40 + 1 mM CaCl2 + 0.1% DMSO.
Then, the dehybridization of the reference lever occurred during a regeneration step followed by the hybridization with an ssDNA-hTGase 2 conjugate (500 nM). Thereafter, the switching kinetics was recorded. […]
The impact on the hydrodynamic drag of the hTGase 2-functionalized lever was investigated under identical conditions for the three irreversible inhibitors 1–3: At first, the switching kinetics of the dsDNA lever and the hTGase 2-dsDNA conjugates were recorded. Secondly, the switching kinetics of the hTGase 2-dsDNA conjugates during and after Ca^2+ exposure were recorded using TE40 + 1 mM CaCl2 or TE40, respectively. […] In this process, the hydrodynamic drag was analyzed during the exposure to 10 µM inhibitor (for 6 min) dissolved in TE40 + 1 mM CaCl2 + 0.1% DMSO and to TE40 afterward. […]

On the set-up of series [6]: method as in doi:10.1039/DT9920002039, PMID 1868851. As to conditions: cited from earlier work.

Like-named read-outs stand apart in the source and are kept apart here.

A word on the IC50: it is the concentration that gives 50% inhibition.

Turning to `C=CC(=O)NCCCCC(NC(=O)Cc1ccccc1)C(=O)N1CCN(c2cccc(F)n2)CC1` (stereo not shown) [Compound 1], the half-maximal inhibitory concentration (IC50) in series [1] is 135 nM; on commercial His6-hTGase 2 [2] it was 108 nM. The kinact/KI at His6-hTGase 2 [3] was 3850 (240) ^e M^−1s^−1.

For `C=CC(=O)NCCCCC(NC(=O)Cc1ccccc1I)C(=O)N1CCN(c2ccc(C(F)(F)F)nc2)CC1` [Compound 3, N^α-(2-Iodophenylacetyl)-N^ε-acryloyl-L-lysin-4-(2-trifluoromethyl-5-yl)piperazide], the values for the IC50 (against commercial His6-hTGase 2 [4]; in series [1]) were 280 nM and 209 nM, respectively. At His6-hTGase 2 [5], the kinact/KI is 4500 M⁻¹ s⁻¹. For the same molecule, the “friction (relative inverse slope) after removal of Ca^2+ and inhibitor ("after Ca^2+ + inhibitor")” value on hTGase 2 is “significantly higher compared to “w/o” and “after Ca^2+””.

On to `Nc1nc2c(ncn2[C@@H]2O[C@H](COP(=O)(O)OP(=O)(O)OP(=O)(O)O)[C@@H](O)[C@H]2O)c(=O)[nH]1` [GTP], for which, in series [6], the “pK value of H2GTP^3− (γP-OH)” value was 6.5, the “pK value of H3GTP^2− (N7^+H)” value is 2.9 and the “pK value of HGTP^4− (N1H)” value is recorded as 9.6.
